# In US10323019B2, “Pyrazolylaminobenzimidazole derivatives as JAK inhibitors” (Eli Lilly and Company, priority 2016, dated 2019):
# Where two headings read alike, the source gives them in different places.
# How the values were obtained:
# JAK1 [1] = target: JAK1 (Homo sapiens (Human), UniProt P23458); assay: AlphaScreen SureFire p-STAT3-(p-Tyr705)-IL6-TF-1-JAK1 cell-based assay; conditions: TF-1 cells, IL6 30 ng/mL, pSTAT3
# Experimental: AlphaScreen SureFire Protocol p-STAT3-(p-Tyr705)-IL6-TF-1-JAK1 Cell-Based Assay
# The JAK1 cell based assay described below is used to determine the JAK1 cellular potency of test compounds.
# Cell preparation: Starve TF-1 cells in DMEM medium with 0.5% […] and 1× Pen/Strep at 37° C. Plate 100K cells per well in BD 96 well black plates with clear bottoms. Maintain the plates at RT for 30-60 minutes before incubating overnight at 37° C., and 5% CO2. Count cells using Vi-Cell counter, using a cell suspension at […] and plated 100 μL/well in […] Biocoat plates (Catalog #354640).
# Test compound preparation and treatment: Prepare compounds at 1:3 serial dilutions in DMSO and further dilute into the medium. Test compounds in a range of 10 point concentrations from 20,000 to 1 nM. Add diluted compound to corresponding cell plates. Incubate the plates at 37° C. for 20 min. Add IL6 solution at the final concentration 30 ng/mL to corresponding cell plates and continue to incubate at 37° C. for 30 min. Remove media and add 50 μL 1× lysis buffer to each well.
# pSTAT3 detection: Perform the following steps sequentially: make acceptor mix (activation buffer/reaction buffer/acceptor beads); transfer 4 μL lysate from 96 well plates to 384 well-Proxiplates; add 5 μL acceptor mix to 384 proxiplate plate(s) and seal plates with aluminum seal; shake 1-2 minutes on plate shaker; incubate plate at RT for 2 hr with gentle shaking; make donor mix (donor beads in dilution buffer); add 2 μL donor mix to assay plates; seal plates with aluminum seal; shake 1-2 minutes on plate shaker; incubate at RT for 2 hr with gentle shaking; read plate with Envision; protocol AlphaScreen Surefire 384.
# JAK3 = JAK3 (Homo sapiens (Human), UniProt P52333); assay: JAK LanthaScreen Kinase Assay (TR-FRET), JAK3 in vitro enzyme assay; type: biochemical; conditions: 20.0 μM ATP
# Experimental: The JAK LanthaScreen™ Kinase Assay (Invitrogen) is used to determine the ability of test compounds to inhibit JAK1, JAK2, and JAK3 kinase activity. These are TR-FRET assay formats that use long-lifetime terbium labeled antibody as the donor species and GFP-STAT1 as the acceptor species. Use the TR-FRET ratio to monitor JAK kinase activity where an increase in phosphorylation of the GFP-STAT1 results in an increase in the TR-FRET ratio. Perform the kinase reaction using a 12.5 μl reaction volume in shallow black 384-well Proxiplate®. Add reagents to obtain final reaction conditions of […], 1.76 mM Triton X-100, ATP (20.0 μM for JAK1 and JAK3 or 5 μM for JAK2) enzyme assays, 10.0 mM MgCl2, 1 mM EGTA and 0.01% Brij-35, […] GFP-STAT1, 14 nM JAK1 enzyme for JAK1, 1.0 nM for JAK2 or 2.5 nM for JAK3 enzyme assays, and 4% DMSO and serial dilutions of test compound (diluted 1:3 from 20,000 to 1 nM). Following ATP/GFP-STAT1 addition, centrifuge the assay plates for 1 minute at 1000 revolutions per minute (RPM). Allow the plates to incubate at RT for 60 minutes and then add 12.5 μl of a stopping buffer containing 20 mM EDTA, 2 nM Terbium-anti-phosphorylated Signal Transducers and Activators of Transcription [phosphorylation Tyrosine 701 amino acid] […] Use ACTIVITYBASE® 4.0 to fit the percent inhibition and ten-point compound concentration data to a four-parameter logistic equation.
# JAK1 [2] = target: JAK1 (Rattus norvegicus, UniProt G3V9W2); assay: Rat PK/PD assay: rat whole blood ex vivo JAK1 activity (pSTAT3); type: in vivo; conditions: 30 mpk oral
# Experimental: Male Wistar rats, 265-285 grams (Charles River) were used for oral gavage dosing. Dose the animals (Oral gavage) at 1.82 mL/kg (0.5 mL per 275 grams). Formulate the compounds in 1% HEC vehicle containing 0.25% Tween 80 and 0.05% antifoam with 1.1 molar equivalent of methanesulfonic acid to form an in situ salt. Formulate compounds once per week, and store at 4° C. At various time points, obtain rat whole blood via tail vain bleeding in Multivette 600 μl EDTA blood collection tubes (cat#151671100PK100, Sarstedt Inc) and use for ex vivo JAK1 and JAK2 assay. Aliquot 100 ul of blood from each rat into a 96-well round bottom plate. Stimulate whole blood by recombinant IL-6 ([…], and recombinant mouse GM-CSF (cat#415-ML, lot#, R&D) for 12 min at rt. After cytokine stimulation, add whole blood into Lyse/fix (cat#558049, lot#, BD) in minitube rack; mix well 5×. Incubate 10 min at rt. Spin minitube rack at 600 g for 4 min. Aspirate with 12-channel manifold. Transfer contents of minitube rack to 96 well round-bottom plates. Spin down the cells at 3000 rpm for 1 min and discard the supernatant. Mix the cells in the well with 100 ul ice-cold MeOH and incubated on ice for 30 min. Add 150 ul PBS+2% FCS into each well and spin down at 3000 rpm, 2 min. Wash cells with 2× of 250 ul PBS+2% FCS. For cell surface and intracellular staining, mix all antibodies and add into each well and incubate 1 hr at rt in dark. The antibodies used for staining are as following: pSTAT3, Alexa Fluor 647 (cat#4324s, lot, Cell Signaling); pSTAT5, Alexa Fluor 488 (cat#3939s, lot#, Cell Signaling), anti-rat CD4, V450 (cat#561579, lot#. BD); anti-rat CD11b, Percp eFluor710 (cat#12-0110-82, lot#, eBioscience) After staining cells with Abs, wash the plates twice with PBS+2% FCS and finally re-suspend in the same 150 ul of solution. Assess cell viability by Viability Dye 780 (cat#65-0865-14, lot#, eBioscience). Perform the cytometry assay using FORTESSA.
# Chain of JAK1 (Rattus norvegicus, UniProt G3V9W2) (G3V9W2 1-1153): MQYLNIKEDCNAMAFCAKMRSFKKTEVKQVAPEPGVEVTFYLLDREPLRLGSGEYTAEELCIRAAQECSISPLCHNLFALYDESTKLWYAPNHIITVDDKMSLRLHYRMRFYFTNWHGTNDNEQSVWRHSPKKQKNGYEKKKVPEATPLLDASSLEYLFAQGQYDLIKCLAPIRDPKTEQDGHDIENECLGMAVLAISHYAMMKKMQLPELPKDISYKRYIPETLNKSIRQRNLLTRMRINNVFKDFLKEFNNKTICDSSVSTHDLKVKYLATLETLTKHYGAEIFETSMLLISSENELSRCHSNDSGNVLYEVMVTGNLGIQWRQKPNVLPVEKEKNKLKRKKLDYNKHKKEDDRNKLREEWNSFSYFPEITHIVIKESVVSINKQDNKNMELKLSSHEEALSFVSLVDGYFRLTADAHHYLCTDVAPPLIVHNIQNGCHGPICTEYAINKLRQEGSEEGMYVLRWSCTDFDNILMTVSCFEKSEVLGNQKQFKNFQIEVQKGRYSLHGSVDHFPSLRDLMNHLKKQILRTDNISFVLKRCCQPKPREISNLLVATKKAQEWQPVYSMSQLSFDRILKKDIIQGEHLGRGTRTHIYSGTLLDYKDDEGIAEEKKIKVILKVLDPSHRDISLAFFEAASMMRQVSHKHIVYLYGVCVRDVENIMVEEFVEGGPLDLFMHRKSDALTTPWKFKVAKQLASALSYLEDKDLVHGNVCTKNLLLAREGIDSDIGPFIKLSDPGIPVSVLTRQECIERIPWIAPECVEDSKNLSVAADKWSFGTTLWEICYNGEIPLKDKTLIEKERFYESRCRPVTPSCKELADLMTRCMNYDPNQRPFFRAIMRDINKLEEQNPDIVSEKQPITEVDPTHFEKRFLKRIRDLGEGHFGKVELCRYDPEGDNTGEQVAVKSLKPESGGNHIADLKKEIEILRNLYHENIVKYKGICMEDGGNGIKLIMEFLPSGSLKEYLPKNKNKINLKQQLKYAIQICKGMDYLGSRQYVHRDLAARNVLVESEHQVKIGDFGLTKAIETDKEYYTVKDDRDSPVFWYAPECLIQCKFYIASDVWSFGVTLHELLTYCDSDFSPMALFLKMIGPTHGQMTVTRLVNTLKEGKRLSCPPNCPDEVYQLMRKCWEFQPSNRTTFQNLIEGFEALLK
# Chain of JAK1 (Homo sapiens (Human), UniProt P23458) (P23458 whole entry): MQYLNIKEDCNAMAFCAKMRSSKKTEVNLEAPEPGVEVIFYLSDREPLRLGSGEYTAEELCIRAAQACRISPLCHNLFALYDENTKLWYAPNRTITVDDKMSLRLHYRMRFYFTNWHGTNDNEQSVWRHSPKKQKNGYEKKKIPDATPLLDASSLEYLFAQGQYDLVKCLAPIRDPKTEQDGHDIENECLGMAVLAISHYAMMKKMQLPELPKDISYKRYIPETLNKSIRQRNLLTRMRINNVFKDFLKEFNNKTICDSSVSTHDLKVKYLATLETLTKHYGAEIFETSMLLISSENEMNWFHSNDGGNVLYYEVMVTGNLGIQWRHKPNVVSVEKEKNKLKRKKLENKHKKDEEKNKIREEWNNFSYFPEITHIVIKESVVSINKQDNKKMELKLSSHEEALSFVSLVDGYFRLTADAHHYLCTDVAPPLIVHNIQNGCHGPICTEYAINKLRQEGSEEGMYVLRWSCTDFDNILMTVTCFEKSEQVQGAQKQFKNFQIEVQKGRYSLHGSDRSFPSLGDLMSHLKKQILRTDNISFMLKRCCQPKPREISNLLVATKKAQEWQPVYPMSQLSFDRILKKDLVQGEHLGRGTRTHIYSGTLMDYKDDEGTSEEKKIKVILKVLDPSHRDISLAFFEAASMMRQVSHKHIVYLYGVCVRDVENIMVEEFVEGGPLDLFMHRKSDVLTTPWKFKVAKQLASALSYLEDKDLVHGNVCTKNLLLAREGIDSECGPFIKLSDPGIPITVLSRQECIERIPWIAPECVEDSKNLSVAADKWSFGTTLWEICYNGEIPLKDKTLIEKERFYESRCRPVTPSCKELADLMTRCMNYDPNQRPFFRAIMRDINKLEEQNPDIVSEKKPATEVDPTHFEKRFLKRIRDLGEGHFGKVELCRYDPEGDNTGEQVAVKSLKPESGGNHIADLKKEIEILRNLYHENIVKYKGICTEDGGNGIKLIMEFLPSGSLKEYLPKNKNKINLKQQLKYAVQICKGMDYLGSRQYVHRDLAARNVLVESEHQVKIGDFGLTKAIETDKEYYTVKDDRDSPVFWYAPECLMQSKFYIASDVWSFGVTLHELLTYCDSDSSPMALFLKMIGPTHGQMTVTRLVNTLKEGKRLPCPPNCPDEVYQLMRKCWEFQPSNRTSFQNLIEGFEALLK
# Chain of JAK3 (P52333 whole entry): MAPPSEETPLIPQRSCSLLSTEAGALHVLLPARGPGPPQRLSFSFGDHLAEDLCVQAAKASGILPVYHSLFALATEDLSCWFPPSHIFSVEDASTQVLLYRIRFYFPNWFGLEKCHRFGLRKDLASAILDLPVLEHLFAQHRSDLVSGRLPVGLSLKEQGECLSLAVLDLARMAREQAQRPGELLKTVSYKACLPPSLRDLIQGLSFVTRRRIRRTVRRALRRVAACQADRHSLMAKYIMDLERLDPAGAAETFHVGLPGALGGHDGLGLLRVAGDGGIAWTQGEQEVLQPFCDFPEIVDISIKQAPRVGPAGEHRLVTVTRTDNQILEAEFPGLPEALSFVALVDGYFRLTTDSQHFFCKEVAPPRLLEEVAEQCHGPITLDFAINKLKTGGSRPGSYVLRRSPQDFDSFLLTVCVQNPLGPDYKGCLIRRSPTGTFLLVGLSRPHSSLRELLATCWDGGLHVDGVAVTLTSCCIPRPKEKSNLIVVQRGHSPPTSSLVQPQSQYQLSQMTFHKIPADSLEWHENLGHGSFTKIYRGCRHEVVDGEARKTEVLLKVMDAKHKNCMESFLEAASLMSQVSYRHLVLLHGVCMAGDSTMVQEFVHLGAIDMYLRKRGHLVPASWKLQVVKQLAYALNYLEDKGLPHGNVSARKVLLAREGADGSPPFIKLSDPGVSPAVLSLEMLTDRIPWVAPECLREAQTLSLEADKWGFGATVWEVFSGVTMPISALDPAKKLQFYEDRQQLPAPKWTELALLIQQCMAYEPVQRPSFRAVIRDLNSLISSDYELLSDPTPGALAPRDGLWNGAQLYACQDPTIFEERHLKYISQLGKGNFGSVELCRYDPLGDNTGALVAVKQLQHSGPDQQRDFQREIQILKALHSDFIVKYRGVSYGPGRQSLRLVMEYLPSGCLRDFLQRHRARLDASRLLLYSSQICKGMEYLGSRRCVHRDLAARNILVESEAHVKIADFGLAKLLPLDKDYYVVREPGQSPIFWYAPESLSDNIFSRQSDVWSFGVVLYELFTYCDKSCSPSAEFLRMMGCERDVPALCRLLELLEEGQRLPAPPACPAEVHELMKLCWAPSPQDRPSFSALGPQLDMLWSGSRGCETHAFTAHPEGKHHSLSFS
compound,measurement,setting,value
"COc1cc(Nc2cc(O[C@H]3CC[C@@H](NC[C@@H](O)C(F)(F)F)CC3)cc3c2ncn3C)nn1C [Example 6, (2R)-1,1,1-Trifluoro-3-{[cis-4-({4-[(5-methoxy-1-methyl-1H-pyrazol-3-yl)amino]-1-methyl-1H-benzimidazol-6-yl}oxy)cyclohexyl]amino}propan-2-ol]",IC50,JAK1 [1],0.168 ± 0.09 nM
same,IC50,JAK3,2540 ± 510 nM
same,inhibition at 30 mg/kg,"JAK1 [2]; 2 hr post dosing, read-out: JAK1 inhibition 2 hr post dosing",83.5%
same,inhibition at 30 mg/kg,"JAK1 [2]; 7 hr post dosing, read-out: JAK1 inhibition 7 hr post dosing",75.4%
